Reference: paper PMC5601235, “In vivo characterisation of a therapeutically relevant self‐assembling ^18F‐labelled β‐sheet forming peptide and its hydrogel using positron emission tomography” (Journal of Labelled Compounds & Radiopharmaceuticals, 2017)
Where two headings read alike, the source gives them in different places. Where a SMILES comes first, the peptide text is derived from it. The star is where a group is joined. X1 = O=C(CO/N=C/c1cccnc1F)*

Assays:
[1] = [^18F]FPCA‐F9 preclinical metabolite analysis (SE‐HPLC of plasma, kidney, liver, urine); format: in vivo, C3H mice
Method: […] Plasma was extracted from whole blood samples using a Thermo ALC multispeed refrigerated centrifuge PK121R (8720 g, 4°C for 3 minutes). Kidney and liver samples were homogenised and centrifuged (8720 g, 4°C for 3 minutes), and the supernatant was removed for HPLC analysis. Urine samples were directly injected onto HPLC without sample preparation using a GE Superdex peptide 10/300 GL (GE Healthcare, UK) eluted with PBS (1 mL/min, 220 nm).

[2] = Preclinical PET biodistribution of [^18F]FPCA‐F9 solution after tail‐vein injection; format: in vivo, C3H mice; details: C3H, mouse, iv, 13 MBq, total radioactivity, i.v. tail vein; for SUV at 1 h: 1 hour postinjection; for SUV at 20 min: 20 minutes postinjection
Method: C3H mice were anaesthetised using isoflurane induction 4% and maintained 1.5% in 70% N2O and 30% O2 mixture. [^18F]FPCA‐F9 solution was injected in the tail vein (13 MBq, n = 4) of healthy mice or [^18F]FPCA‐F9 hydrogel was injected subcutaneously into the right flank of different healthy mice (2‐5 MBq, n = 3). The acquisition protocol parameters consisted of a preliminary CT scan to determine attenuation correction factors followed by a 1‐ and 4‐hour PET acquisition time for [^18F]FPCA‐F9 solution and hydrogel, respectively. Major excretory organs, including liver, kidney and bladder as well as bone and hydrogel region (in [^18F]FPCA‐F9 hydrogel scans only), were delineated on CT and uptake was quantified as SUV.

NCCCC[C@H](NC(=O)[C@H](CCCCN)NC(=O)[C@H](Cc1ccccc1)NC(=O)[C@H](CCC(=O)O)NC(=O)[C@H](Cc1ccccc1)NC(=O)[C@H](CCCCN)NC(=O)[C@H](Cc1ccccc1)NC(=O)[C@H](CCC(=O)O)NC(=O)[C@H](Cc1ccccc1)NC(=O)CO/N=C/c1cccnc1F)C(=O)O [[^18F]FPCA‐F9] (X1-FEFKFEFKK-OH)
Metabolites of [^18F]FPCA‐F9 in liver, kidney, urine and plasma samples (in words) ([1]; SE‐HPLC, parent peak at ~18 minutes): none of the samples analysed showed any metabolite | Plasma stability (in words) ([1]; in vivo, mouse plasma, metabolite analysis by SE‐HPLC): high plasma stability | Radioactivity in second peak at ~8 minutes (larger species, aggregation or protein interaction) ([1]; liver and kidney samples, SE‐HPLC): ~ 5% | Parent ([^18F]FPCA‐F9) fraction, kidney ([1]; mouse kidney homogenate supernatant after i.v. injection of monomer, after 60 minutes, SE‐HPLC radio‐detection, mean ± SD, n = 4): 95% ± 1% | Parent ([^18F]FPCA‐F9) fraction, liver ([1]; mouse liver homogenate supernatant after i.v. injection of monomer, after 60 minutes, SE‐HPLC radio‐detection (Superdex peptide 10/300 GL, PBS), mean ± SD, n = 4): 94% ± 0% | Parent ([^18F]FPCA‐F9) fraction, plasma ([1]; mouse plasma after i.v. injection of monomer, after 60 minutes, SE‐HPLC radio‐detection, mean, n = 4): 100% | Parent ([^18F]FPCA‐F9) fraction, urine ([1]; mouse urine after i.v. injection of monomer, after 60 minutes, SE‐HPLC radio‐detection, mean ± SD, n = 4): 95% ± 1% | Radioactivity in peak at ~12 minutes (larger species) ([1]; urine samples, SE‐HPLC): 5% | SUV at 1 h ([2]; bladder, n = 4, read-out: Bladder uptake): 47.4 ± 7.2 SUV | SUV at 20 min ([2]; bladder, begins to plateau, n = 4, mean ± SD, read-out: Bladder uptake): 53.4 ± 16.6 SUV | SUV at 1 h ([2]; bone, n = 4, read-out: Bone accumulation): 7.8 ± 2.5 SUV | SUV ([2]; kidney, within 5 minutes postinjection, n = 4, read-out: Kidney uptake): 5.9 ± 1.9 SUV | SUV at 5 min ([2]; liver, 5 minutes postinjection, n = 4, read-out: Liver uptake): 1.4 ± 0.1 SUV | SUV at 20 min ([2]; liver, n = 4, read-out: Liver uptake): 0.7 ± 0.1 SUV
